These results are taken from PubChem BioAssay (NCI).

Test systems include SK-MEL-5 melanoma; BT-549 breast; DU-145 prostate; SNB-19 CNS; HCC-2998 colon; COLO 205 colon; MOLT-4 leukemia; NCI/ADR-RES ovarian; RXF 393 renal; LOX IMVI melanoma.
Holding throughout (experiment): NCI-60 cell line screen, 48 h

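Test compounds were applied to cells in 96-well plates for 48 hours at 5 doses. The concentration for 50% growth inhibition is given as GI50. The concentration for full growth arrest is given as TGI.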 Some results are limits rather than exact numbers.

In the case of `CN(C)C/C=C/C(=O)Nc1ccc(C(=O)Nc2cccc(Nc3ncc(Cl)c(-c4c[nH]c5ccccc45)n3)c2)cc1`, the GI50 was 0.035 µM in the assay on SK-MEL-5 melanoma; 0.0336 µM with BT-549 breast; 0.0307 µM in the assay on DU-145 prostate; 0.0272 µM in the assay with SNB-19 CNS; 0.0154 µM in the assay on HCC-2998 colon; 0.0121 µM with COLO 205 colon. Moreover, the GI50 is 0.032 µM in the assay with MOLT-4 leukemia, 1.54 µM with NCI/ADR-RES ovarian, 0.0157 µM with RXF 393 renal and 0.0133 µM with LOX IMVI melanoma. Also, the TGI in the assay on SK-MEL-5 melanoma is > 100 µM; in the assay on BT-549 breast, 0.42 µM; in the assay on DU-145 prostate it was 0.81 µM; in the assay with SNB-19 CNS, > 35.3 µM; in the assay with HCC-2998 colon, 0.203 µM; in the assay on COLO 205 colon it was 0.0562 µM. The TGI in the assay on MOLT-4 leukemia was > 100 µM; with NCI/ADR-RES ovarian, > 100 µM; in the assay with RXF 393 renal it was 0.0397 µM; in the assay on LOX IMVI melanoma, 0.0856 µM.
Regarding `NC(=O)NC(=O)Nc1ccc(Br)cc1`, the TGI in the assay on SK-MEL-5 melanoma was > 18.6 µM; in the assay on BT-549 breast, > 100 µM; in the assay on DU-145 prostate it was > 100 µM; with SNB-19 CNS it was > 39.3 µM; in the assay on HCC-2998 colon, > 31.9 µM; in the assay on COLO 205 colon, > 28.8 µM. The TGI in the assay with MOLT-4 leukemia is > 100 µM; in the assay with NCI/ADR-RES ovarian, > 63.5 µM; with RXF 393 renal, > 100 µM; with LOX IMVI melanoma it was > 56.9 µM.
On to `Cc1cc(NS(=O)(=O)c2ccc(-c3cnc(C4CC4)o3)cc2)ccc1Cl`, for which the GI50 with SK-MEL-5 melanoma was 0.253 µM; in the assay with BT-549 breast it was 1.06 µM; in the assay on DU-145 prostate, 0.455 µM; in the assay on SNB-19 CNS it was 0.362 µM; in the assay with HCC-2998 colon it was 1.23 µM; in the assay on COLO 205 colon, 0.305 µM. In addition, the GI50 is 0.525 µM with MOLT-4 leukemia, 0.181 µM in the assay on NCI/ADR-RES ovarian, 0.173 µM with RXF 393 renal and 0.386 µM with LOX IMVI melanoma. The TGI in the assay on SK-MEL-5 melanoma was determined as 11.5 µM; in the assay on BT-549 breast, 16.6 µM; in the assay with DU-145 prostate, 15.1 µM; with SNB-19 CNS, 16.3 µM; in the assay on HCC-2998 colon it was 11.7 µM; in the assay on COLO 205 colon it was 5.8 µM. Besides, the TGI with MOLT-4 leukemia came out at 46.8 µM; in the assay on NCI/ADR-RES ovarian, 12.5 µM; with RXF 393 renal, 3.13 µM; with LOX IMVI melanoma, 14 µM.
For the compound `COc1ccc(/C=C/C(=O)C(=O)/C=C/c2ccc(OC)c(OC)c2)cc1OC`, the GI50 in the assay with SK-MEL-5 melanoma is 2.14 µM; in the assay with BT-549 breast, 1.81 µM; with DU-145 prostate, 3.08 µM; in the assay with SNB-19 CNS it was 3.11 µM; in the assay with HCC-2998 colon it was 1.72 µM; in the assay on COLO 205 colon it was 1.9 µM. Moreover, the GI50 is 2.06 µM with MOLT-4 leukemia, 4.2 µM in the assay with NCI/ADR-RES ovarian, 1.46 µM with RXF 393 renal and 1.46 µM in the assay with LOX IMVI melanoma. Besides, the TGI with SK-MEL-5 melanoma amounted to 6.15 µM; in the assay on BT-549 breast, 4.45 µM; with DU-145 prostate, 14.2 µM; in the assay on SNB-19 CNS, 23.3 µM; with HCC-2998 colon it was 3.21 µM; in the assay with COLO 205 colon, 4.95 µM. Further, the TGI in the assay with MOLT-4 leukemia was 19.3 µM; in the assay with NCI/ADR-RES ovarian, > 100 µM; in the assay with RXF 393 renal, 3.04 µM; with LOX IMVI melanoma it was 3.21 µM.
Take `Cn1cc(Nc2nccc(-c3ccc4c(c3)CN(C3COC3)CC[C@H]4NC(=O)c3cn(C(C)(C)C)nn3)n2)cn1`: the GI50 in the assay with SK-MEL-5 melanoma was 26.3 µM; in the assay with BT-549 breast, > 100 µM; in the assay with DU-145 prostate, > 100 µM; in the assay on SNB-19 CNS, > 100 µM; in the assay on HCC-2998 colon, > 100 µM; with COLO 205 colon, 30.6 µM. Moreover, the GI50 was 89.7 µM in the assay on MOLT-4 leukemia, > 100 µM with NCI/ADR-RES ovarian, 26.6 µM in the assay with RXF 393 renal and 38.5 µM in the assay on LOX IMVI melanoma. The TGI in the assay with SK-MEL-5 melanoma, in the assay on BT-549 breast, with DU-145 prostate, in the assay with SNB-19 CNS, with HCC-2998 colon and with COLO 205 colon was > 100 µM in each case. The TGI in the assay with MOLT-4 leukemia, in the assay with NCI/ADR-RES ovarian, in the assay with RXF 393 renal and with LOX IMVI melanoma was > 100 µM throughout.
In the case of `Cc1ccc2c(-c3ccnc(Nc4cccc(C(F)(F)F)c4)n3)c(-c3ccccc3)nn2n1`, the GI50 in the assay on SK-MEL-5 melanoma is 4.05 µM; in the assay on BT-549 breast it was 15 µM; with DU-145 prostate it was 12.3 µM; in the assay with SNB-19 CNS it was > 17.9 µM; with HCC-2998 colon, 5.99 µM; in the assay with COLO 205 colon it was 4.04 µM. Further, the GI50 in the assay with MOLT-4 leukemia is > 25 µM; with NCI/ADR-RES ovarian, 8.47 µM; with RXF 393 renal it was 2.95 µM; in the assay on LOX IMVI melanoma, 4.92 µM. In addition, the TGI is 7.94 µM with SK-MEL-5 melanoma; > 24 µM in the assay on BT-549 breast; 24.4 µM with DU-145 prostate; > 25 µM in the assay on SNB-19 CNS; 16.1 µM with HCC-2998 colon; > 25 µM in the assay on COLO 205 colon. Moreover, the TGI in the assay on MOLT-4 leukemia was > 25 µM; with NCI/ADR-RES ovarian, > 25 µM; with RXF 393 renal, 8.57 µM; in the assay on LOX IMVI melanoma, > 17.2 µM.
On to `CN1CCN(CCCCCOc2cc(O)c3c(=O)cc(-c4ccccc4)oc3c2)CC1`, for which the GI50 in the assay on SK-MEL-5 melanoma was 3.13 µM; with BT-549 breast, 13.4 µM; in the assay on DU-145 prostate, 10.5 µM; in the assay on SNB-19 CNS, 4.11 µM; with HCC-2998 colon, 0.239 µM; in the assay on COLO 205 colon it was 1.63 µM. Moreover, the GI50 in the assay on MOLT-4 leukemia is 3.27 µM; in the assay on NCI/ADR-RES ovarian, 14.9 µM; in the assay on RXF 393 renal, 1.96 µM; in the assay on LOX IMVI melanoma, 1.6 µM. The TGI is 10.3 µM in the assay with SK-MEL-5 melanoma; 29.7 µM with BT-549 breast; > 100 µM in the assay on DU-145 prostate; 22.3 µM in the assay on SNB-19 CNS; 4.9 µM in the assay with HCC-2998 colon; 3.06 µM with COLO 205 colon. In addition, the TGI with MOLT-4 leukemia came out at 12.4 µM; with NCI/ADR-RES ovarian it was 54.4 µM; with RXF 393 renal, 5.97 µM; in the assay on LOX IMVI melanoma, 2.95 µM.
